Calls of active or inactive are those of the source. The calls are words filed in the database; no cut-off is given here.
Assays:
[1] = Hemolytic activity in BALB/c mouse Red blood cells assessed as hemolysis at 10 to 100 uM incubated for 2 hrs; assay type: toxicity, cell-based, Erythrocyte; conditions: dose 10-100 µM, read-out: Activity
[2] = Toxicity in male athymic nude mouse assessed as morphological changes in heart at 5 to 20 mg/kg, iv administered every 2 days and measured after 2 weeks by H and E staining based analysis; assay type: organism-based; conditions: in vivo, 336 h, dose 5-20 mg/kg
[3] = test system: NCI-H460; assay: Anti-tumor activity against DDX10 knockdown human NCI-H460 cells assessed as inhibition of cell viability; assay type: functional, cell-based
[4] = test system: NCI-H460; assay: Antitumor activity against human NCI-H460 cells xenografted in iv dosed athymic nude mouse assessed as tumor growth inhibition administered every 2 days and measured after 2 weeks; assay type: functional, organism-based; conditions: dose 5-20 mg/kg
[5] = test system: NCI-H460; assay: Inhibition of epithelial mesenchymal transition in human NCI-H460 cells assessed as increase in E-cadherin protein expression by Western blotting analysis; assay type: functional, cell-based
[6] = Toxicity in male athymic nude mouse assessed as heart damage at 20 to 80 mg/kg, iv administered every 2 days and measured after 2 weeks; assay type: organism-based; conditions: in vivo, 336 h, dose 20-80 mg/kg
[7] = Toxicity in male athymic nude mouse assessed as morphological changes in liver at 5 to 20 mg/kg, iv administered every 2 days and measured after 2 weeks by H and E staining based analysis; assay type: organism-based; conditions: in vivo, 336 h, dose 5-20 mg/kg
[8] = test system: MCF7; assay: Anti-tumor activity against human MCF7 cells assessed as cell viability incubated for 48 hrs by CCK-8 assay; assay type: functional, cell-based
[9] = Toxicity in male athymic nude mouse assessed as change in body weight at 20 to 80 mg/kg, iv administered every 2 days and measured after 2 weeks; assay type: organism-based; conditions: in vivo, 336 h, dose 20-80 mg/kg
[10] = test system: NCI-H460; assay: Induction of DNA damage in human NCI-H460 cells assessed as increase in gammaH2AX positive cells by immunofluorescence analysis; assay type: functional, cell-based
[11] = test system: NCI-H460; assay: Anti-tumor activity against human NCI-H460 cells assessed as cell viability incubated for 48 hrs by CCK-8 assay; assay type: functional, cell-based; conditions: NCI-H460, 48 h
[12] = Toxicity in male athymic nude mouse assessed as tumor necrosis at 5 to 20 mg/kg, iv administered every 2 days and measured after 2 weeks by H and E staining based analysis; assay type: organism-based; conditions: in vivo, 336 h, dose 5-20 mg/kg
[13] = Toxicity in male athymic nude mouse assessed as liver damage at 20 to 80 mg/kg, iv administered every 2 days and measured after 2 weeks; assay type: organism-based; conditions: in vivo, 336 h, dose 20-80 mg/kg
[14] = test system: NCI-H460; assay: Antitumor activity against human NCI-H460 cells xenografted in athymic nude mouse assessed as change in tumor weight at 10 to 20 mg/kg, iv administered every 2 days and measured after 2 weeks; assay type: functional, organism-based; conditions: dose 10-20 mg/kg
[15] = Toxicity in male athymic nude mouse assessed as morphological changes in lung at 5 to 20 mg/kg, iv administered every 2 days and measured after 2 weeks by H and E staining based analysis; assay type: organism-based; conditions: in vivo, 336 h, dose 5-20 mg/kg
[16] = test system: NCI-H460; assay: Inhibition of colony formation in human NCI-H460 cells assessed as reduction in colony formation rate upto 12.5 uM incubated for 14 days by crystal violet staining based analysis; assay type: functional, cell-based; conditions: time 14.0 day
[17] = test system: NCI-H460; assay: Induction of apoptosis in human NCI-H460 cells assessed as increase in caspase-3 level at 500 nM incubated for 24 hrs by Western blot analysis; assay type: functional, cell-based
[18] = Toxicity in male athymic nude mouse assessed as liver metastasis at 5 to 20 mg/kg, iv administered every 2 days and measured after 2 weeks by H and E staining based analysis; assay type: organism-based; conditions: in vivo, 336 h, dose 5-20 mg/kg
[19] = test system: NCI-H460; assay: Inhibition of epithelial mesenchymal transition in human NCI-H460 cells assessed as decrease in N-cadherin protein expression by Western blotting analysis; assay type: functional, cell-based
[20] = Toxicity in male athymic nude mouse assessed as spleen damage at 20 to 80 mg/kg, iv administered every 2 days and measured after 2 weeks; assay type: organism-based; conditions: in vivo, 336 h, dose 20-80 mg/kg
[21] = test system: NCI-H460; assay: Inhibition of cell invasion in human NCI-H460 cells assessed as decrease in number of invading cells at 500 nM incubated for 48 hrs by transwell assay; assay type: functional, cell-based
[22] = test system: NCI-H460; assay: Antitumor activity against human NCI-H460 cells xenografted in athymic nude mouse assessed as increase in gamma-H2AX level in tumor at 20 mg/kg, iv administered every 2 days and measured after 2 weeks by Western blot assay; assay type: functional, organism-based
[23] = test system: NCI-H460; assay: Induction of apoptosis in human NCI-H460 cells assessed as increase in BAX level at 500 nM incubated for 24 hrs by Western blot analysis; assay type: functional, cell-based
[24] = Toxicity in male athymic nude mouse assessed as lung metastasis at 5 to 20 mg/kg, iv administered every 2 days and measured after 2 weeks by H and E staining based analysis; assay type: organism-based; conditions: in vivo, 336 h, dose 5-20 mg/kg
[25] = test system: NCI-H460; assay: Anti-migratory activity against human NCI-H460 cells assessed as inhibition of cell migration at 500 nM measured for 48 hrs by wound healing assay; assay type: functional, cell-based
[26] = test system: NCI-H460; assay: Antitumor activity against human NCI-H460 cells xenografted in athymic nude mouse assessed as change in tumor weight at 5 mg/kg, iv administered every 2 days and measured after 2 weeks; assay type: functional, organism-based
[27] = Toxicity in male athymic nude mouse assessed as kidney damage at 20 to 80 mg/kg, iv administered every 2 days and measured after 2 weeks; assay type: organism-based; conditions: in vivo, 336 h, dose 20-80 mg/kg
[28] = test system: NCI-H460; assay: Effect on DDX10 level in human NCI-H460 cells by TPP analysis; assay type: functional, cell-based
[29] = Toxicity in male athymic nude mouse assessed as change in body weight at 5 to 20 mg/kg, iv administered every 2 days and measured after 2 weeks; assay type: organism-based; conditions: in vivo, 336 h, dose 5-20 mg/kg
[30] = test system: NCI-H460; assay: Induction of apoptosis in human NCI-H460 cells assessed as downregulation of Bcl2 expression at 500 nM incubated for 24 hrs by Western blot analysis; assay type: functional, cell-based
[31] = test system: NCI-H460; assay: Antitumor activity against human NCI-H460 cells xenografted in athymic nude mouse assessed as tumor growth inhibition at 20 mg/kg, iv administered every 2 days and measured after 2 weeks; assay type: functional; conditions: NCI-H460, 336 h, read-out: TGI
[32] = Toxicity in male athymic nude mouse assessed as lung damage at 20 to 80 mg/kg, iv administered every 2 days and measured after 2 weeks; assay type: organism-based; conditions: in vivo, 336 h, dose 20-80 mg/kg
[33] = test system: NCI-H460; assay: Antitumor activity against human NCI-H460 cells xenografted in athymic nude mouse assessed as tumor growth inhibition at 10 mg/kg, iv administered every 2 days and measured after 2 weeks; assay type: functional; conditions: NCI-H460, 336 h, read-out: TGI
[34] = test system: NCI-H460; assay: Downregulation of DDX10 expression in human NCI-H460 cells; assay type: functional, cell-based
[35] = test system: HT-29; assay: Anti-tumor activity against human HT-29 cells assessed as cell viability incubated for 48 hrs by CCK-8 assay; assay type: functional, cell-based
[36] = test system: NCI-H460; assay: Antitumor activity against human NCI-H460 cells xenografted in athymic nude mouse assessed as tumor growth inhibition at 5 mg/kg, iv administered every 2 days and measured after 2 weeks; assay type: functional; conditions: NCI-H460, 336 h, read-out: TGI
[37] = Toxicity in male athymic nude mouse assessed as morphological changes in spleen at 5 to 20 mg/kg, iv administered every 2 days and measured after 2 weeks by H and E staining based analysis; assay type: organism-based; conditions: in vivo, 336 h, dose 5-20 mg/kg
[38] = test system: NCI-H460; assay: Upregulation of gamma-H2AX expression in human NCI-H460 cells by Western blot analysis; assay type: functional, cell-based
[39] = biological target: Probable ATP-dependent RNA helicase DDX10 (Homo sapiens) (UniProt Q13206); assay: Binding affinity to DDX10 human NCI-H460 cells incubated for 60 mins at 37 to 67 degreeC by CETSA assay; assay type: cell-based
Probable ATP-dependent RNA helicase DDX10 (Homo sapiens), sequence (Q13206 whole entry): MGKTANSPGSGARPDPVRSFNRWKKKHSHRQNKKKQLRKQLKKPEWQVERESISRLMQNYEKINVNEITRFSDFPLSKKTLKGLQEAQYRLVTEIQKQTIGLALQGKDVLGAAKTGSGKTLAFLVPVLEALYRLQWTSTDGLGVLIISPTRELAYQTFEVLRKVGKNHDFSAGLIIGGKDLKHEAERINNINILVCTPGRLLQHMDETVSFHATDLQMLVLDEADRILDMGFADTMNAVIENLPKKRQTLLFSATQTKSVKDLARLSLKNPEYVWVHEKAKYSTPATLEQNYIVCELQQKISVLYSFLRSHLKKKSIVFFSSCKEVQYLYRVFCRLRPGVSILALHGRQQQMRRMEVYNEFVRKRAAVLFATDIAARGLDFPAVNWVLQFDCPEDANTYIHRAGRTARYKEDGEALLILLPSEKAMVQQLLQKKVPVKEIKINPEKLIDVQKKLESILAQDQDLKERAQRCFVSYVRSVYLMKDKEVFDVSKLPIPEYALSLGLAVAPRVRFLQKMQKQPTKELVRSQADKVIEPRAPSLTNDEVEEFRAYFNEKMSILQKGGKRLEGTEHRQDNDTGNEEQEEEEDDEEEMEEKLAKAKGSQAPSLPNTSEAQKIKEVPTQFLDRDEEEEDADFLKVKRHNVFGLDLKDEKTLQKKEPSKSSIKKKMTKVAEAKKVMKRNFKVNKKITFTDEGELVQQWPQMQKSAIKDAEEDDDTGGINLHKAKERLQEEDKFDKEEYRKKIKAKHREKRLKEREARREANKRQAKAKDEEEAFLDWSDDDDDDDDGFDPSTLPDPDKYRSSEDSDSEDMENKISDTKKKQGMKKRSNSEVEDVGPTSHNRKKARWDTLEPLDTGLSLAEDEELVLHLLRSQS

[40] = Toxicity in iv dosed BALB/c mouse assessed as maximum tolerated dose administered every 2 days and measured after 2 weeks; assay type: organism-based; conditions: in vivo
[41] = test system: NCI-H460; assay: Induction of DNA damage in human NCI-H460 cells assessed as increase in gammaH2AX positive cells by DAPI staining based confocal laser scanning microscopic analysis; assay type: functional, cell-based
[42] = test system: HeLa; assay: Anti-tumor activity against human HeLa cells assessed as cell viability incubated for 48 hrs by CCK-8 assay; assay type: functional, cell-based
[43] = test system: NCI-H460; assay: Antitumor activity against human NCI-H460 cells xenografted in athymic nude mouse assessed as increase in gamma-H2AX level in tumor at 20 mg/kg, iv administered every 2 days and measured after 2 weeks by immunofluorescence assay; assay type: functional, organism-based
[44] = test system: NCI-H460; assay: Induction of apoptosis in human NCI-H460 cells assessed as apoptosis rate at 500 nM incubated for 24 hrs by annexin V-FITC/PI staining based flow cytometry analysis relative to control; assay type: functional
[45] = Toxicity in male athymic nude mouse assessed as morphological changes in kidney at 5 to 20 mg/kg, iv administered every 2 days and measured after 2 weeks by H and E staining based analysis; assay type: organism-based; conditions: in vivo, 336 h, dose 5-20 mg/kg
[46] = Hemolytic activity in BALB/c mouse Red blood cells assessed as effect on morphological structure at 10 to 100 uM incubated for 2 hrs; assay type: toxicity, cell-based; conditions: erythrocyte, dose 10-100 µM
[47] = test system: NCI-H460; assay: Antitumor activity against human NCI-H460 cells xenografted in athymic nude mouse assessed as increase in gamma-H2AX level in tumor at 5 mg/kg, iv administered every 2 days and measured after 2 weeks by immunofluorescence assay; assay type: functional, organism-based
[48] = test system: NCI-H460; assay: Antitumor activity against human NCI-H460 cells xenografted in athymic nude mouse assessed as change in tumor volume at 5 mg/kg, iv administered every 2 days and measured after 2 weeks; assay type: functional, organism-based

COc1ccc([Se]c2c(-c3ccccc3)ncc3cccnc23)cc1
hemolysis at 2 h, 100 µM [1]: < 1%
Activity [2]: Non-toxic
Activity [3]: Active
TGI [4]: Dose-dependent-effect
inhibition [5]: Active
Activity [6]: Non-toxic
Activity [7]: Non-toxic
Activity [8]: inactive
Activity [9]: Non-toxic
Activity [10]: Active
IC50 [11]: 1.59 µM
Activity [12]: Non-toxic
Activity [13]: Non-toxic
Activity [14]: inactive
Activity [15]: Non-toxic
inhibition [16]: Active
Activity [17]: Active
Activity [18]: Non-toxic
N-cadherin expression decrease (qualitative activity) [19]: Active
Activity [20]: Non-toxic
inhibition [21]: Active
Activity [22]: Active
Activity [23]: Active
Activity [24]: Non-toxic
Activity [25]: Active
Activity [26]: Active
Activity [27]: Non-toxic
Activity [28]: Active
Activity [29]: Non-toxic
Activity [30]: Active
inhibition in vivo at 20 mg/kg [31]: 88%
Activity [32]: Non-toxic
inhibition in vivo at 10 mg/kg [33]: 78%
Activity [34]: Active
Activity [35]: inactive
inhibition in vivo at 5 mg/kg [36]: 60%
Activity [37]: Non-toxic
Activity [38]: Active
Activity [39]: Active
MTD at 336 h [40]: 160 mg/kg
Activity [41]: Active
Activity [42]: inactive
Activity [43]: Active
Activity [44]: 42.6%
Activity [45]: Non-toxic
Activity [46]: Non-toxic
Activity [47]: Active
Activity [48]: Active

Reference: ChEMBL document CHEMBL6103645, “Modular Synthesis of Bioactive Selenoheterocycles for Efficient Cancer Therapy via Electrochemical Selenylation/Cyclization” (J Med Chem, 2025)
